Laboratory results as given in publication PMC8242589, “Cardiac Safety of Kinase Inhibitors – Improving Understanding and Prediction of Liabilities in Drug Discovery Using Human Stem Cell-Derived Models” (Frontiers in Cardiovascular Medicine, 2021).
Where two headings read alike, the source gives them in different places.

Tests used:
Type in all cases: cell-based, human
[1] = tested on: hSC-CMs (Cor.4U Cardiomyocytes); test: Apoptosis assay (CellEvent Caspase-3/7 Green, IncuCyte ZOOM kinetics over 24 h); design: key to Caspase / Caspase MEAN: % of time-matched vehicle control (green object area); conditions: for Caspase MEAN: DMSO = 100; for Caspase / activity at 0.03 µM / activity at 0.3 µM / activity at 3 µM / activity at 30 µM: normalized to time-matched vehicle control; for activity at 0.03 µM / activity at 0.3 µM / activity at 3 µM / activity at 30 µM: Homo sapiens, Cardiomyocyte
Protocol: Cor.4U® Cardiomyocytes ([…], Netherlands) were cultured in 96-well plates at density of 25,000 - 30,000 cells per well. Cells were maintained at 5% CO2 and 37 °C for 4 days prior to experiments. […] The plates were incubated 2 h before compound treatment in the IncuCyte ZOOM (ESSEN BioScience, Ann Arbor, Michigan) to set a baseline before the 24 h compound treatment. […] Imaging was done using 10x microscope objective of the IncuCyteZOOM with four images per well-taken every 2 h in both phase-contrast and green fluorescence. The fluorescent nuclear signal of the apoptotic cells was separated from background with the integrated object counting algorithm, adjusted to cardiomyocytes, and the calculated total green object area per well (μm^2/well) plotted against time. Data were normalized to those of the time-matched vehicle control. Data were representative of at least three replicates per concentration.

[2] = tested on: hSC-CMs (Cor.4U Cardiomyocytes); test: ATP assay (CellTiter-Glo Luminescent Cell Viability Assay); conditions: for ATP: normalized to time-matched DMSO control
Protocol: Cor.4U® Cardiomyocytes (Ncardia, Netherlands) were cultured in 96-well plates at density of 25,000 – 30,000 cells per well. Cells were maintained at 5% CO2 and 37 °C for 4 days prior to experiments. The cell culture medium (Cor4U® Complete Culture Medium, cat# Ax-M-HC250E, Axiogenesis AG, Cologne, Germany) was changed every 24 h and was replaced by serum-free BMCC medium (cat# Ax-M-BMCC259, Axiogenesis AG, Cologne, Germany) 12 h prior to drug addition.
The CellTiter-Glo Luminescent Cell Viability Assay (cat# G7572, Promega, USA) was performed for quantification of the cellular ATP concentration according to manufacturer's instructions. Plates were shaken for 2 min in the dark, incubated at ambient temperature for 10 min before measuring luminescence (Integration time 0.1 seconds per well) with Luminescence Counter (Synergy H1, BioTek Instruments, Inc., Winooski, Vermont). The measured ATP concentration values were normalized to the time-matched DMSO controls. Data are representative of at least three replicates per concentration.

[3] = tested on: hSC-CMs (Cor.4U Cardiomyocytes); test: CardioExcyte 96 impedance and EFP recording (beating rate, base impedance); conditions: for BR / Base Imp / activity at 0.03 µM / activity at 0.3 µM / activity at 3 µM / activity at 30 µM: vs baseline before drug (taken as 100%); for activity at 0.03 µM / activity at 0.3 µM / activity at 3 µM / activity at 30 µM: Homo sapiens, Cardiomyocyte
Protocol: Cor.4U® Cardiomyocytes (Ncardia, Netherlands) were cultured in 96-well plates at density of 25,000 – 30,000 cells per well. Cells were maintained at 5% CO2 and 37 °C for 4 days prior to experiments.
Functional monitoring of cardiomyocytes was done using CardioExcyte® 96 (Nanion technologies GmbH, Germany). Extracellular field potential (EFP) and impedance signals were recorded from hSC-CMs that formed monolayers in the wells of the NSP-96 plate. Beating Rate (BR, per minute) was calculated as the reciprocal of the inter-spike interval (ISI) in EFP signal. Impedance signals from spontaneously beating hSC-CMs were recorded with a sampling rate of 1 ms (1 kHz), and EFP data were collected at 0.1ms (10 kHz). Data acquisition was controlled by CardioExcyte® 96 Control software as previously described ([22]). The functional parameters recorded in each concentration of test items were compared to the base line values before drug addition (taken as 100%) to define fractional change.

For CN[C@@H]1C[C@H]2O[C@@](C)([C@@H]1OC)n1c3ccccc3c3c4c(c5c6ccccc6n2c5c31)C(=O)NC4 [Staurosporine], the “Caspase MEAN” value ([1]; 1 µM, Time 2.75) was 85, the “Caspase MEAN” value ([1]; 1 µM, Time 4.75) was 254 and the “Caspase MEAN” value ([1]; 1 µM, Time 6.75) was 1532. For the same compound, the “Caspase MEAN” value ([1]; 1 µM, Time 8.75) was 3137, the “Caspase MEAN” value ([1]; 1 µM, Time 10.75) was 4841 and the “Caspase MEAN” value ([1]; 1 µM, Time 12.75) was 5989. The “Caspase MEAN” value ([1]; 1 µM, Time 14.75) was 7301, the “Caspase MEAN” value ([1]; 1 µM, Time 16.75) was 7458 and the “Caspase MEAN” value ([1]; 1 µM, Time 18.75) was 8506. For the same compound, the “Caspase MEAN” value ([1]; 1 µM, Time 20.75) was 7604, the “Caspase MEAN” value ([1]; 1 µM, Time 22.75) was 7381 and the “Caspase MEAN” value ([1]; 1 µM, Time 24.75) was 7608. The “Caspase MEAN” value ([1]; 1 µM, Time 26.75) was 7240.

For CCOC(=O)c1cnc2ccc(-c3cncc(NS(=O)(=O)c4ccccc4)c3)cn12 [HS-173], the ATP ([2]; 0.03 µM, 2h) was 89, the ATP ([2]; 0.03 µM, 24h) was 98 and the ATP ([2]; 0.1 µM, 2h) was 87. It also gave an ATP ([2]; 0.1 µM, 24h) of 99, an ATP ([2]; 0.3 µM, 2h) of 86 and an ATP ([2]; 0.3 µM, 24h) of 90. For the same compound, the ATP ([2]; 1 µM, 2h) was 86, the ATP ([2]; 1 µM, 24h) was 83 and the “Decrease of ATP level” value ([2]; hSC-CMs, after 24 h of incubation) was 20–25%. For the same compound, the BR ([3]; 0.03 µM, 2h) was 105, the “Base Imp” value ([3]; 0.03 µM, 2h) was 87 and the BR ([3]; 0.03 µM, 24h) was 97. The “Base Imp” value ([3]; 0.03 µM, 24h) was 87, the BR ([3]; 0.1 µM, 2h) was 93 and the “Base Imp” value ([3]; 0.1 µM, 2h) was 83. The BR ([3]; 0.1 µM, 24h) was 89, the “Base Imp” value ([3]; 0.1 µM, 24h) was 85 and the BR ([3]; 0.3 µM, 2h) was 85. The “Base Imp” value ([3]; 0.3 µM, 2h) was 81, the BR ([3]; 0.3 µM, 24h) was 84 and the “Base Imp” value ([3]; 0.3 µM, 24h) was 72. The BR ([3]; 1 µM, 2h) was 86, the “Base Imp” value ([3]; 1 µM, 2h) was 69 and the BR ([3]; 1 µM, 24h) was 75. For the same compound, the “Base Imp” value ([3]; 1 µM, 24h) was 67, the “Reduction of base impedance” value ([3]; hSC-CMs, 2 and 24 h) was “more than 20%” and the “Reduction of beating rate” value ([3]; hSC-CMs, 2 and 24 h) was “more than 20%”. For the same compound, the “Apoptosis (caspase-3/7 activation), result in words” value [1] was “induced apoptosis in hSC-CMs with a fast onset”, the Caspase ([1]; 0.03 µM, 2h) was 167 and the Caspase ([1]; 0.03 µM, 24h) was 80. For the same compound, the Caspase ([1]; 0.1 µM, 2h) was 138, the Caspase ([1]; 0.1 µM, 24h) was 151 and the Caspase ([1]; 0.3 µM, 2h) was 123. The Caspase ([1]; 0.3 µM, 24h) was 200, the Caspase ([1]; 1 µM, 2h) was 120 and the Caspase ([1]; 1 µM, 24h) was 373. The “Time to reach the maximum number of apoptotic cells” value ([1]; hSC-CMs, monitored over 24 h) was at most 12 h.

Cn1c(=O)n(-c2ccc(C(C)(C)C#N)cc2)c2c3cc(-c4cnc5ccccc5c4)ccc3ncc21 [NVP-BEZ235, Dactolisib] gave an activity at 0.03 µM ([3]; 0.03 µM, 2h, read-out: BR) of 99%, an activity at 0.03 µM ([3]; 0.03 µM, 2h, read-out: Base Imp) of 88% and an activity at 0.03 µM ([3]; 0.03 µM, 24h, read-out: BR) of 90%. The activity at 0.03 µM ([3]; 0.03 µM, 24h, read-out: Base Imp) was 85%, the activity at 0.3 µM ([3]; 0.3 µM, 2h, read-out: BR) was 73% and the activity at 0.3 µM ([3]; 0.3 µM, 2h, read-out: Base Imp) was 86%. The activity at 0.3 µM ([3]; 0.3 µM, 24h, read-out: BR) was 57%, the activity at 0.3 µM ([3]; 0.3 µM, 24h, read-out: Base Imp) was 75% and the activity at 3 µM ([3]; 2h, read-out: BR) was 39%. The activity at 3 µM ([3]; 2h, read-out: Base Imp) was 71%, the activity at 3 µM ([3]; 24h, read-out: BR) was 14% and the activity at 3 µM ([3]; 24h, read-out: Base Imp) was 52%. It also gave an activity at 30 µM ([3]; 2h, read-out: BR) of 19%, an activity at 30 µM ([3]; 2h, read-out: Base Imp) of 51% and an activity at 30 µM ([3]; 24h, read-out: BR) of 30%. The activity at 30 µM ([3]; 24h, read-out: Base Imp) was 45%, the “Effect on cardiomyocyte function in 3D surface plots (beating rate, base impedance, ATP), in words” value ([3]; hSC-CMs, 2 and 24 h) was “pronounced effects” and the “Reduction of base impedance” value ([3]; hSC-CMs, 2 and 24 h) was “more than 20%”. For the same compound, the “Reduction of beating rate” value ([3]; hSC-CMs, 2 and 24 h) was “more than 20%”, the activity at 0.03 µM ([1]; 0.03 µM, 2h) was 242% and the activity at 0.03 µM ([1]; 0.03 µM, 24h) was 188%. The activity at 0.3 µM ([1]; 0.3 µM, 2h) was 148%, the activity at 0.3 µM ([1]; 0.3 µM, 24h) was 320% and the activity at 3 µM ([1]; 2h) was 72%. It also gave an activity at 3 µM ([1]; 24h) of 228%, an activity at 30 µM ([1]; 2h) of 86% and an activity at 30 µM ([1]; 24h) of 355%. For the same compound, the “Apoptosis (caspase-3/7 activation), result in words” value ([1]; hSC-CMs, monitored over 24 h) was “induced apoptosis in hSC-CMs with a fast onset” and the “Time to reach the maximum number of apoptotic cells” value ([1]; hSC-CMs, monitored over 24 h) was at most 12 h.
